Source: US6451787B1, “Remedies for ocular diseases” (Cephalon, Inc., priority 1998, dated 2002)

Key:
[1] = test system: retinal gangliocyte in a retinal ischemia—reperfusion model; assay: Effects on the retina subjected to the ischemia—reperfusion treatment; assay type: in vivo, rat
Source text: 1. Effects on the Retina Subjected to the Ischemia—Reperfusion Treatment
It has been reported that brain-derived neurotrophic factor (it is referred to as BDNF hereinafter) which is a neurotrophic factor has a protective effect against gangliocytic death caused by retinal ischemia (Invest. Ophthalmol. Vis. Sci. 35, 907-915 (1994)).
Thus, according to the method described in this reference, the effects of the compounds on retinal gangliocyte in a retinal ischemia—reperfusion model were studied.
Under anesthesia with a mixture of Ketalar and Celactal, the conjunctiva of a male Spraugue—Dawley rat (300-450 g) was dissected to expose the optic nerve and then the retina was subjected to an ischemic state by ligating the optic nerve with a suture. Sixty minutes after the ischemia, the suture was taken out to reperfuse the retina with the blood by allowing the circulation. Seven days after the reperfusion, the eye bulb was enucleated and then immobilized with paraformaldehyde, and after embedding it in paraffin, the transverse paraffin sections of the eye bulb with 3 μm of the thickness were prepared by slicing the eye bulb beginning from the point of exposure of the optic nerve with 60 μm of each interval. These sections were stained with hematoxylin—eosin and photographs were taken for the section in which the retinal part at the distance of approximately 1 mm from the optic disc to either direction, left or right, is included to measure the number of the cells contained in the layer of gangliocyte.
Here, the compound was dissolved into polyethylene glycol 660 hydroxystearate and injected in the volume of 1 μl into the hyaloid body two day before the creation of the ischemic state.

[2] = test system: retinal disturbance induced by injecting kainic acid into the hyaloid body; assay: Effects on the retina from the eye treated with kainic acid; assay type: in vivo, rat; details: for Thickness of the inner plexiform layer: injected two days before, at the same time as and one day after kainic acid, Normal 47.5, Control 20.8; for Thickness of the inner plexiform layer / Number of the cells in the layer of gangliocyte: 7 days after; for Number of the cells in the layer of gangliocyte: Normal 64.2, Control 36.8
Procedure: 2. Effects on the Retina From the Eye Treated with Kainic Acid
It has been reported that when kainic acid, that is a neurotoxin, is injected into the hyaloid body, the inner plexiform layer becomes thinner because of synaptic collapse caused by cell death of amacrine cell or the number of the cells contained in the layer of gangliocyte decreases because of apoptosis happening to those cells (Neurochem. Int., 31, 251-260 (1997)).
Then, according to the method described in this reference, the effects of the compound on the retinal disturbance induced by injecting kainic acid into the hyaloid body were studied.
To a male Sprague—Dawley rat (180-250 g) under anesthesia with pentobarbital, a solution of kainic acid in polyethylene glycol 660 hydroxystearate (1 mmol/L) was injected into the hyaloid bodies in both of the eyes in the amount of 5 μl under observation with a stereoscopic microscopy. […]. These sections were stained with hematoxylin—eosin and photographs were taken for the sections in which the retinal part at the distance of approximately 1 mm from the optic disc to either direction, left or right, is included to measure the thickness of the inner plexiform layer and the number of the cells contained in the layer of gangliocyte.
The compound was dissolved into polyethylene glycol 660 hydroxystearate and then injected into the hyaloid bodies two days before, at the same time as and one day after the kainic acid treatment in the volume of 5 μl each.

Structure (SMILES): CCSCc1ccc2c(c1)c1c3c(c4c5cc(CSCC)ccc5n5c4c1n2[C@H]1C[C@](O)(C(=O)OC)[C@]5(C)O1)CNC3=O [Compound A]
- Number of the cells in the layer of gangliocyte recovered to the level of that for Normal Group (1) ([1]; 3 μg injected, ischemia—reperfusion treatment): 70.9%
- Number of the cells in the layer of gangliocyte ([1]; 3 μg/eye injected into the hyaloid body two days before 60 min ischemia, 7 days after reperfusion, Normal Group 38.8, Control Group 20.5): 27.5 cells/mm
- Protective effect on neurocyte disturbance of the retina caused by the ischemia—reperfusion treatment ([1]; conclusion in words): superior protective effect
- Number of the cells in the layer of gangliocyte recovered to the level of that for Normal group (2) ([2]; 3 μg injected, kainic acid treatment): 80.7%
- Thickness of the inner plexiform layer ([2]; 3 μg/eye): 28.8 μm
- Number of the cells in the layer of gangliocyte ([2]; 3 μg/eye, kainic acid treatment): 51.8 cells/mm
- Thickness of the inner plexiform layer ([2]; 30 μg/eye [sic]): 23.8 μm
- Number of the cells in the layer of gangliocyte ([2]; 30 μg/eye [sic], kainic acid treatment): 42.3 cells/mm
- Protective effect against neurocyte disturbance of the retina caused by the kainic acid treatment ([2]; conclusion in words): superior protective effect
